From patent US11608335B2, “Somatostatin modulators and uses thereof” (CRINETICS PHARMACEUTICALS, INC., priority 2018, dated 2023)

target: human somatostatin receptor subtype 5 (Homo sapiens, UniProt P35346); test: cAMP assay for SST5R (inhibition of cAMP via human SST5 receptor); settings: not given
Sequence (P35346 whole entry): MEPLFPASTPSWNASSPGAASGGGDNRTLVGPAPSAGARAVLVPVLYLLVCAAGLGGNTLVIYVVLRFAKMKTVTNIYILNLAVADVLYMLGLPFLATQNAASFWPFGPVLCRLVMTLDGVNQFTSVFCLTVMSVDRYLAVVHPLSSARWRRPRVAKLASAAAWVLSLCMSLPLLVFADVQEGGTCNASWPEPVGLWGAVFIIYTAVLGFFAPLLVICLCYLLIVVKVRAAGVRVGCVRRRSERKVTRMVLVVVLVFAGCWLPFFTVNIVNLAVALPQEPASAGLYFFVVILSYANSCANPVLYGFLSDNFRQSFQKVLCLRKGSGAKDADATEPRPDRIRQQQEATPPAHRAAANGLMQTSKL

First: N#Cc1cccc(-c2cncc(-c3nc4c(C(=O)O)cccc4[nH]3)c2N2CC[C@H](N)C2)c1 [Compound 2-82, 2-{4-[(3S)-3-aminopyrrolidin-1-yl]-5-(3-cyanophenyl)pyridin-3-yl}-1H-1,3-benzodiazole-4-carboxylic acid]
Second: N#Cc1cccc(-c2cncc(-c3nc4c(F)cccc4[nH]3)c2N2CC(N)C(C(F)(F)F)C2)c1 (stereo not shown) [Compound 2-33, 3-{4-[3-amino-4-(trifluoromethyl)pyrrolidin-1-yl]-5-(4-fluoro-1H-1,3-benzodiazol-2-yl)pyridin-3-yl}benzonitrile]
The EC50 of the first is higher: over 1000 nM for the first, 100 to 1000 nM for the second. The second is the more potent here.

First: N#Cc1c(Cl)cccc1-c1cncc(-c2nc3cccc(F)c3[nH]2)c1N1CC[C@H](N)C1 [Compound 2-47, 2-{4-[(3S)-3-aminopyrrolidin-1-yl]-5-(4-fluoro-1H-1,3-benzodiazol-2-yl)pyridin-3-yl}-6-chlorobenzonitrile]
Second: N#Cc1cc(Cl)cc(-c2cncc(-c3nc4cccc(F)c4[nH]3)c2N2CC[C@H](N)C2)c1 [Compound 2-5, 3-{4-[(3S)-3-aminopyrrolidin-1-yl]-5-(4-fluoro-1H-1,3-benzodiazol-2-yl)pyridin-3-yl}-5-chlorobenzonitrile]
The EC50 of the first is lower: under 10 nM for the first, 10 to 100 nM for the second. The first is the more potent here.

`Cc1cccc2nc(-c3cncc(-c4cccc(C(N)=O)c4F)c3N3CCC(C)(N)C3)[nH]c12` (stereo not shown) [Compound 2-138, 3-[4-(3-amino-3-methylpyrrolidin-1-yl)-5-(4-methyl-1H-1,3-benzodiazol-2-yl)pyridin-3-yl]-2-fluorobenzamide] and `Cc1cccc2[nH]c(-c3cncc(-c4ccnc(C(N)=O)c4)c3N3CC[C@](C)(N)C3)nc12` [Compound 2-156, 4-[(3S)-3-amino-3-methylpyrrolidin-1-yl]-5-(4-methyl-1H-1,3-benzodiazol-2-yl)-[3,4′-bipyridine]-2′-carboxamide] cannot be ordered by EC50: under 10 nM for the first, under 10 nM for the second.

First: NCC1(F)CN(c2c(-c3cc(F)cc(Cl)c3)cncc2-c2nc3cc(F)cc(F)c3[nH]2)C1 [Compound 1-62, 1-{1-[3-(3-chloro-5-fluorophenyl)-5-(4,6-difluoro-1H-1,3-benzodiazol-2-yl)pyridin-4-yl]-3-fluoroazetidin-3-yl}methanamine]
Second: Cc1cc(F)cc(-c2cncc(-c3nc4cc(Cl)cc(F)c4[nH]3)c2N2CC(CN)C2)c1 [Compound 1-18, 1-{1-[3-(6-chloro-4-fluoro-1H-1,3-benzodiazol-2-yl)-5-(3-fluoro-5-methylphenyl)pyridin-4-yl]azetidin-3-yl}methanamine]
The EC50 of the first is lower: under 10 nM for the first, 10 to 100 nM for the second.

`Cc1ccnc2nc(-c3cncc(-c4ccc(F)c(C#N)c4)c3N3CCC(C)(N)C3)[nH]c12` (stereo not shown) [Compound 2-119, 5-[4-(3-amino-3-methylpyrrolidin-1-yl)-5-{7-methyl-1H-imidazo[4,5-b]pyridin-2-yl}pyridin-3-yl]-2-fluorobenzonitrile] and `Cc1nccc2nc(-c3cncc(-c4ccc(F)c(C#N)c4)c3N3CCC(C)(N)C3)[nH]c12` (stereo not shown) [Compound 2-159, 5-[4-(3-amino-3-methylpyrrolidin-1-yl)-5-{4-methyl-3H-imidazo[4,5-c]pyridin-2-yl}pyridin-3-yl]-2-fluorobenzonitrile] cannot be ordered by EC50: under 10 nM for the first, under 10 nM for the second.

`Cc1cccc(-c2cncc(-c3nc4cc(F)cc(F)c4[nH]3)c2N2CC(CN)C2)c1F` [Compound 1-67, 1-{1-[3-(4,6-difluoro-1H-1,3-benzodiazol-2-yl)-5-(2-fluoro-3-methylphenyl)pyridin-4-yl]azetidin-3-yl}methanamine] and `Cc1cncc(-c2cncc(-c3nc4cc(F)cc(F)c4[nH]3)c2N2CC(CN)C2)c1` [Compound 1-32, 1-{1-[5-(4,6-difluoro-1H-1,3-benzodiazol-2-yl)-5′-methyl-[3,3′-bipyridin]-4-yl]azetidin-3-yl}methanamine] fall in the same range of EC50: 100 to 1000 nM for the first, 100 to 1000 nM for the second.

`N#Cc1cccc(-c2cncc(-c3nc4c(F)cc(F)cc4[nH]3)c2N2CC(CN)C2)c1` [Compound 1-54, 3-{4-[3-(aminomethyl)azetidin-1-yl]-5-(4,6-difluoro-1H-1,3-benzodiazol-2-yl)pyridin-3-yl}benzonitrile] and `Cc1cccc(-c2cncc(-c3nc4c(F)cc(F)cc4[nH]3)c2N2CC(CN)C2)c1` [Compound 1-29, 1-{1-[3-(4,6-difluoro-1H-1,3-benzodiazol-2-yl)-5-(3-methylphenyl)pyridin-4-yl]azetidin-3-yl}methanamine] cannot be ordered by EC50: under 10 nM for the first, under 10 nM for the second.

`Cc1cc(-c2cncc(-c3nc4cc(F)cc(F)c4[nH]3)c2N2CC(CN)C2)cc(C(F)(F)F)c1` [Compound 1-33, 1-{1-[3-(4,6-difluoro-1H-1,3-benzodiazol-2-yl)-5-[3-methyl-5-(trifluoromethyl)phenyl]pyridin-4-yl]azetidin-3-yl}methanamine] and `Cc1cc(F)cc(-c2cncc(-c3nc4cnccc4[nH]3)c2N2CC(CN)C2)c1` [Compound 1-22, 1-{1-[3-(3-fluoro-5-methylphenyl)-5-{3H-imidazo[4,5-c]pyridin-2-yl}pyridin-4-yl]azetidin-3-yl}methanamine] fall in the same range of EC50: 100 to 1000 nM for the first, 100 to 1000 nM for the second.

Compared with `N#Cc1c(F)cccc1-c1cncc(-c2nc3c(F)ccc(F)c3[nH]2)c1N1CC[C@H](N)C1` [Compound 2-40, 2-{4-[(3S)-3-aminopyrrolidin-1-yl]-5-(4,7-difluoro-1H-1,3-benzodiazol-2-yl)pyridin-3-yl}-6-fluorobenzonitrile], `Cc1ccc(F)c2nc(-c3cncc(-c4cc(F)cc(C(N)=O)c4)c3N3CC[C@H](N)C3)[nH]c12` [Compound 2-96, 3-{4-[(3S)-3-aminopyrrolidin-1-yl]-5-(7-fluoro-4-methyl-1H-1,3-benzodiazol-2-yl)pyridin-3-yl}-5-fluorobenzamide] is lower in EC50: 10 to 100 nM for the first, under 10 nM for the second.

Going from `NC(=O)c1cccc(-c2cncc(-c3nc4cccc(F)c4[nH]3)c2N2CCC(N)(C(F)(F)F)C2)c1` (stereo not shown) [Compound 2-64, 3-{4-[3-amino-3-(trifluoromethyl)pyrrolidin-1-yl]-5-(4-fluoro-1H-1,3-benzodiazol-2-yl)pyridin-3-yl}benzamide] to `NC(=O)c1cccc(-c2cncc(-c3nc4cccc(F)c4[nH]3)c2N2CC[C@H](N)C2)c1` [Compound 2-85, 3-{4-[(3S)-3-aminopyrrolidin-1-yl]-5-(4-fluoro-1H-1,3-benzodiazol-2-yl)pyridin-3-yl}benzamide], the EC50 falls from over 1000 nM to under 10 nM. The second is the more potent here.

First: N#Cc1cc(F)cc(-c2cncc(-c3nc4cccc(F)c4[nH]3)c2N2C[C@@H](N)C[C@@H]2CO)c1 [Compound 2-66, 3-{4-[(2R,4S)-4-amino-2-(hydroxymethyl)pyrrolidin-1-yl]-5-(4-fluoro-1H-1,3-benzodiazol-2-yl)pyridin-3-yl}-5-fluorobenzonitrile]
Second: N#Cc1cc(F)cc(-c2cncc(-c3nc4cccc(F)c4[nH]3)c2N2C[C@@H](N)C[C@H]2CO)c1 [Compound 2-88, 3-{4-[(2S,4S)-4-amino-2-(hydroxymethyl)pyrrolidin-1-yl]-5-(4-fluoro-1H-1,3-benzodiazol-2-yl)pyridin-3-yl}-5-fluorobenzonitrile]
The EC50 of the first is lower: 100 to 1000 nM for the first, over 1000 nM for the second. The first is the more potent here.

First: C[C@]1(N)CCN(c2c(-c3ccc(F)c(C#N)c3)cncc2-c2nc3ncc(F)cc3[nH]2)C1 [Compound 2-168, 5-{4-[(3S)-3-amino-3-methylpyrrolidin-1-yl]-5-{6-fluoro-1H-imidazo[4,5-b]pyridin-2-yl}pyridin-3-yl}-2-fluorobenzonitrile]
Second: CC1(N)CCN(c2c(-c3cccc(-n4cccn4)c3)cncc2-c2nc3cccc(F)c3[nH]2)C1 (stereo not shown) [Compound 2-16, 1-[3-(4-fluoro-1H-1,3-benzodiazol-2-yl)-5-[3-(1H-pyrazol-1-yl)phenyl]pyridin-4-yl]-3-methylpyrrolidin-3-amine]
The EC50 of the first is lower: under 10 nM for the first, 10 to 100 nM for the second.

First: CC(N)C1CN(c2c(-c3nc4cc(F)cc(F)c4[nH]3)cncc2-c2cccc(F)c2O)C1 (stereo not shown) [Compound 1-75, 2-{4-[3-(1-aminoethyl)azetidin-1-yl]-5-(4,6-difluoro-1H-1,3-benzodiazol-2-yl)pyridin-3-yl}-6-fluorophenol]
Second: NCC1CN(c2c(-c3nc4c(F)cc(F)cc4[nH]3)cncc2-c2ccccc2F)C1 [Compound 1-44, 1-{1-[3-(4,6-difluoro-1H-1,3-benzodiazol-2-yl)-5-(2-fluorophenyl)pyridin-4-yl]azetidin-3-yl}methanamine]
The EC50 of the first is lower: 10 to 100 nM for the first, 100 to 1000 nM for the second. The first is the more potent here.

`N#Cc1cccc(-c2cncc(-c3nc4cccc(F)c4[nH]3)c2N2C[C@H](CO)[C@@H](N)C2)c1` (racemic) [Compound 2-89, 3-{4-[trans-3-amino-4-(hydroxymethyl)pyrrolidin-1-yl]-5-(4-fluoro-1H-1,3-benzodiazol-2-yl)pyridin-3-yl}benzonitrile] and `CO/N=C/c1cccc(-c2cncc(-c3nc4cccc(F)c4[nH]3)c2N2CC[C@H](N)C2)c1` [Compound 2-12, (3S)-1-[3-(4-fluoro-1H-1,3-benzodiazol-2-yl)-5-{3-[(methoxyimino)methyl]phenyl}pyridin-4-yl]pyrrolidin-3-amine] fall in the same range of EC50: 10 to 100 nM for the first, 10 to 100 nM for the second.

First: Cc1cccc2nc(-c3cncc(-c4ccc(F)c(C#N)c4)c3N3CC[C@H](N)C3)n(C)c12 [Compound 2-134, 5-{4-[(3S)-3-aminopyrrolidin-1-yl]-5-(1,7-dimethyl-1H-1,3-benzodiazol-2-yl)pyridin-3-yl}-2-fluorobenzonitrile]
Second: N[C@H]1CCN(c2c(-c3cc(F)cc(Cl)c3)cncc2-c2nc3ccc(Cl)cc3[nH]2)C1 [Compound 2-95, (3S)-1-[3-(5-chloro-1H-1,3-benzodiazol-2-yl)-5-(3-chloro-5-fluorophenyl)pyridin-4-yl]pyrrolidin-3-amine]
The EC50 of the first is lower: under 10 nM for the first, 10 to 100 nM for the second. The first is the more potent here.

`COc1cc(Cl)cc(-c2cncc(-c3nc4c(F)cc(F)cc4[nH]3)c2N2CC(CN)C2)c1` [Compound 1-59, 1-{1-[3-(3-chloro-5-methoxyphenyl)-5-(4,6-difluoro-1H-1,3-benzodiazol-2-yl)pyridin-4-yl]azetidin-3-yl}methanamine] showed an EC50 of under 10 nM.

same assay, conditions: SST5 over SST2, class symbols

For `COc1cccc(-c2cncc(-c3nc4cccc(F)c4[nH]3)c2N2CCC(C)(N)C2)c1` (stereo not shown) [Compound 2-11, 1-[3-(4-fluoro-1H-1,3-benzodiazol-2-yl)-5-(3-methoxyphenyl)pyridin-4-yl]-3-methylpyrrolidin-3-amine], the “Fold selectivity for SST5 vs SST2” value was “+++ (+++=≥500)”.
In the case of `Cc1ccnc2nc(-c3cncc(-c4ccc(F)c(C#N)c4)c3N3CCC(C)(N)C3)[nH]c12` (stereo not shown) [Compound 2-119, 5-[4-(3-amino-3-methylpyrrolidin-1-yl)-5-{7-methyl-1H-imidazo[4,5-b]pyridin-2-yl}pyridin-3-yl]-2-fluorobenzonitrile], the “Fold selectivity for SST5 vs SST2” value is reported as “++ (++=100 to 499)”.

same assay, conditions: read-out: SST5 potency; inhibition of cAMP via human SST5 receptor; Table B

`Cc1ccnc2nc(-c3cncc(-c4ccc(F)c(C#N)c4)c3N3CCC(C)(N)C3)[nH]c12` (stereo not shown) [Compound 2-119, 5-[4-(3-amino-3-methylpyrrolidin-1-yl)-5-{7-methyl-1H-imidazo[4,5-b]pyridin-2-yl}pyridin-3-yl]-2-fluorobenzonitrile] gave an EC50 of under 10 nM.
